Tests used:
Format in all cases: functional
Pseudomonas aeruginosa [1] = test: Antibacterial activity against multidrug-resistant Pseudomonas aeruginosa 5313 after 16 to 20 hrs by agar dilution method
Escherichia coli [2] = test: Antibacterial activity against multidrug-resistant Escherichia coli 5364 after 16 to 20 hrs by agar dilution method
Pseudomonas aeruginosa [3] = test: Antibacterial activity against multidrug-resistant Pseudomonas aeruginosa 5510 after 16 to 20 hrs by agar dilution method
Escherichia coli [4] = test: Antibacterial activity against multidrug-resistant Escherichia coli 5237 after 16 to 20 hrs by agar dilution method
Pseudomonas aeruginosa [5] = test: Antibacterial activity against multidrug-resistant Pseudomonas aeruginosa 5215 after 16 to 20 hrs by agar dilution method
Escherichia coli [6] = test: Antibacterial activity against multidrug-resistant Escherichia coli 5353 after 16 to 20 hrs by agar dilution method
Pseudomonas aeruginosa [7] = test: Antibacterial activity against multidrug-resistant Pseudomonas aeruginosa 5585 after 16 to 20 hrs by agar dilution method
Pseudomonas aeruginosa [8] = test: Antibacterial activity against multidrug-resistant Pseudomonas aeruginosa 5298 after 16 to 20 hrs by agar dilution method
Escherichia coli [9] = test: Antibacterial activity against multidrug-resistant Escherichia coli 5539 after 16 to 20 hrs by agar dilution method

Measured: MIC

CCC(C)CCC(O)CC(=O)N[C@H](CCN)C(=O)N[C@H]1CCNC(=O)[C@H](CC(C)C)NC(=O)[C@H](CCN)NC(=O)[C@H](CCN)NC(=O)[C@@H](Cc2ccccc2)NC(=O)[C@H](CC(C)C)NC(=O)[C@H](CCN)NC1 (some centres undefined)
2 to 4 µg/mL: Pseudomonas aeruginosa [1] | Escherichia coli [2] | Pseudomonas aeruginosa [3] | Escherichia coli [4] | Pseudomonas aeruginosa [5] | Escherichia coli [6] | Pseudomonas aeruginosa [7] | Pseudomonas aeruginosa [8] | Escherichia coli [9]

From ChEMBL document CHEMBL4219042, “Advances in macrocyclic peptide-based antibiotics” (2018)
